From ChEMBL document CHEMBL1201862, “PubChem BioAssay data set” (2004)
The source made the active and inactive calls. Cut-off read from the data, not from the text of the source: actives have a measured IC50 and inactives only a lower limit.

Molecular target: Envelope glycoprotein gp160 (Human immunodeficiency virus 1, UniProt Q6QLK5)
Experiment: cell-free HIV fusion peptide-binding blockers – biochemical, uHTS, fluorescence dequenching, […] (AID 1986)

Chain of Envelope glycoprotein gp160 (Q6QLK5 whole entry, the tested form may be a part): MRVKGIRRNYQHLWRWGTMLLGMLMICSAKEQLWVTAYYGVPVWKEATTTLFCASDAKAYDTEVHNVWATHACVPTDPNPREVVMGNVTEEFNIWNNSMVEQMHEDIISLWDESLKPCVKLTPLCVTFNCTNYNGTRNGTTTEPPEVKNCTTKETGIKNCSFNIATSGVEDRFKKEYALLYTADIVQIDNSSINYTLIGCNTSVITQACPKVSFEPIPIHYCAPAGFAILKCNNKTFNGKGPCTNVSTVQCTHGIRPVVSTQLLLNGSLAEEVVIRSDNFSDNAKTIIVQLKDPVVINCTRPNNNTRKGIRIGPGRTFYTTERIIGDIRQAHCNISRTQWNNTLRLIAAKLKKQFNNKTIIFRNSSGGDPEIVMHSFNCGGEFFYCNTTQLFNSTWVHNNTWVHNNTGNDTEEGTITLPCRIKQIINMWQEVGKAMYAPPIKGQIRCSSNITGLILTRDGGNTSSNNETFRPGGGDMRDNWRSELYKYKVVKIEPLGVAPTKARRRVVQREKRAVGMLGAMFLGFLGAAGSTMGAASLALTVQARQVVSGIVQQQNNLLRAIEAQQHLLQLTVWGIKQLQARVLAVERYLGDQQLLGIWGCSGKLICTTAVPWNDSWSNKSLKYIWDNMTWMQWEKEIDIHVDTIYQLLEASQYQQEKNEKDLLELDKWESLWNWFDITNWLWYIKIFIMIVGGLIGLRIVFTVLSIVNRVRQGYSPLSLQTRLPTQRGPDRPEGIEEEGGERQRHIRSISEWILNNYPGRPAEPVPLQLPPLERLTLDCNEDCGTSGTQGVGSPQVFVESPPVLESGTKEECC

## O=C(O)c1ccc(-c2ccc(/C=c3/sc4nc5ccccc5n4c3=O)o2)cc1Cl
  IC50: 13.7 µM (active)
